These results are taken from publication PMC11884936, “MDC1 mediates Pellino recruitment to sites of DNA double-strand breaks” (Life Science Alliance, 2025).

Type in all cases: binding, human
For experiment [1], the system named is PELI1/2. The experiment is described as follows: Biotinylated peptide pull-down from HeLa nuclear extracts, Western blot for PELI1/2. As to conditions: biotinylated peptide on streptavidin beads, 4 h at 4°C, SDS–PAGE and Western blot. On the procedure:
(§1) Streptavidin-coupled Dynabeads MyOne Streptavidin T1 (Invitrogen) were washed four times with PBS pH 7.4. To conjugate the Dynabeads with biotinylated peptides (21st Century Biochemicals, Inc.), 30 μl of beads were incubated with 0.2 μmol of each peptide with end-over-end rotation for 90 min at RT. Conjugated Dynabeads were then washed once with PBS and 3 × 2 min with 0.1% BSA in PBS. HeLa nuclear extracts (Ipracell) were diluted 1:1 in 2X Dilution buffer (100 mM NaCl, 10 mM NaF, 0.2 mM EDTA, 0.4% Igepal CA-630, 20 mM HEPES-KOH pH 7.4) supplemented with complete protease inhibitor cocktail (Roche), and cleared by centrifugation at 16,000g for 15 min at 4°C. Purified GST-PELI2-FHA recombinant protein was also diluted in 2X Dilution buffer containing protease inhibitors. MDC1-[p]TQXF peptide-conjugated Dynabeads were incubated either with clarified HeLa nuclear extracts for 4 h or with purified GST-PELI2-FHA for 5 h. H2AX-[p]S139 peptide-conjugated Dynabeads were incubated with clarified HeLa nuclear extracts for 4 h. In all the cases, incubation was performed with end-over-end rotation at 4°C. Beads were washed three times with Peptide pull-down buffer (50 mM NaCl, 50 mM KCl, 5 mM NaF, 0.1 mM EDTA, 0.2% Igepal CA-630, 10% glycerol, 20 mM HEPES-KOH pH 7.4) supplemented with complete protease inhibitor cocktail (Roche). Then, they were either resuspended in Peptide pull-down buffer and brought to the Functional Genomics Center of the University of Zurich (FGCZ) for further mass spectrometry, or elution was carried out in 2X SDS sample buffer (100 mM DTT, PLD001; Geneaid) for SDS–PAGE. […]
(§2) Adjusted volume (intensity) of Western blot bands was calculated with Image Lab (Bio-Rad, Image Lab Software Version 6.1, Bio-Rad Laboratories, Inc.) for every biotinylated p-peptide from the MDC1-[p]TQXF peptide pull-down from HeLa nuclear extracts, as a way of analyzing the binding affinity of either RNF8 or PELI1/2 for each pTQXF cluster. […]
(In general: In western blotting, separated proteins are transferred to a membrane and probed.)

The test system of experiment [2] is GST-PELI2-FHA. The experiment in a line: Biotinylated peptide pull-down of purified recombinant GST-PELI2-FHA. To be noted: biotinylated peptide on streptavidin beads, 5 h at 4°C, SDS–PAGE, protein stain. As to the method: For recombinant human PELI2-FHA expression in bacteria and further purification, the GST-tagged PELI2-FHA construct was transformed into E. coli BL21(DE3)pLysS Competent Cells (Promega). 100 μl of the transformation mixture were used to inoculate a 500 ml flask containing 100 ml of Luria–Bertani broth (LB) supplemented with carbenicillin (100 μg/ml) and chloramphenicol (34 μg/ml), and inoculated culture was incubated overnight at 27°C without shaking. On the next day, the overnight culture was grown at 37°C in an orbital shaking incubator until the optical density at 600 nm reached 0.6–0.8, moment when culture was removed from the incubator and rapidly cooled on ice to 25°C. Recombinant protein expression was induced by the addition of 0.4 mM isopropyl β-D-1-thiogalactopyranoside (IPTG) and incubation of the culture for a further 4 h at 25°C shaking at 220 rpm was performed. Cells were then harvested by centrifugation, and the resulting pellet was stored at −80°C until required. […] Protein concentration was measured after every purification step. […]

Experiment [3] relates to RNF8. The experiment in a line: Biotinylated peptide pull-down from HeLa nuclear extracts, Western blot for RNF8. To be noted: biotinylated peptide on streptavidin beads, 4 h at 4°C, SDS–PAGE and Western blot. On the procedure: as §1, with “h.” for “h. In all the cases, incubation was performed with end-over-end rotation at 4°C. Beads were washed three times with Peptide pull-down buffer (50 mM NaCl, 50 mM KCl, 5 mM NaF, 0.1 mM EDTA, 0.2% Igepal CA-630, 10% glycerol, 20 mM HEPES-KOH pH 7.4) supplemented with complete protease inhibitor cocktail (Roche). Then, they were either resuspended in Peptide pull-down buffer and brought to the Functional Genomics Center of the University of Zurich (FGCZ) for further mass spectrometry, or elution was carried out in 2X SDS sample buffer (100 mM DTT, PLD001; Geneaid) for SDS–PAGE.”
as §2

The test system of experiment [4] is MDC1. The experiment in a line: Biotinylated H2AX-pS139 peptide pull-down from HeLa nuclear extracts, Western blot for MDC1. As to conditions: biotinylated peptide on streptavidin beads, 4 h at 4°C. On the procedure: as §1, with “(Roche).” for “(Roche). Then, they were either resuspended in Peptide pull-down buffer and brought to the Functional Genomics Center of the University of Zurich (FGCZ) for further mass spectrometry, or elution was carried out in 2X SDS sample buffer (100 mM DTT, PLD001; Geneaid) for SDS–PAGE.”

In the case of “Biotin-SGS-AVQSMEDEP[p]TQAFML-NH2 [biotinylated pT719, synthetic biotinylated MDC1 TQXF phosphopeptide for pull-downs]”, the “PELI1/2 pulled down by the peptide (in words)” value (“PELI1/2 pulled down” for short) in experiment [1] is reported as “specifically pulled down”. Further, in experiment [2], the “purified GST-PELI2-FHA pulled down by the peptide (in words)” value is listed as “specifically pulled down”.

In the case of “Biotin-SGS-CLRESEDSE[p]TQPFDT-NH2 [biotinylated pT765, synthetic biotinylated MDC1 TQXF phosphopeptide for pull-downs]”, the “PELI1/2 pulled down” value in experiment [1] is “more PELI1/2 than RNF8”.

“Biotin-SGS-DSEDLDLQA[p]TQCFLE-NH2 [biotinylated pT699, synthetic biotinylated MDC1 TQXF phosphopeptide for pull-downs]”: the “PELI1/2 pulled down” value in experiment [1] is “highest quantities”. Moreover, the “RNF8 pulled down by the peptide (in words)” value in experiment [3] was “highest quantities”.

In the case of “Biotin-SGS-LDEPWEVLA[p]TQPFCL-NH2 [biotinylated pT752, synthetic biotinylated peptide, human MDC1 residues 743–757, phospho-threonine at T752]”, in experiment [2], the “purified GST-PELI2-FHA pulled down by the peptide (in words)” value was “specifically pulled down”. Besides, the “RNF8 pulled down by the peptide (in words)” value in experiment [3] is given as “large quantities”.

On to “Biotin-SGS-TVGPKAPSGGKKATQA[p]SQEY-OH [biotinylated H2AX-pS139, biotinylated γH2AX phosphopeptide for pull-downs]”, for which the “MDC1 pulled down by the peptide (in words)” value in experiment [4] is “efficiently pulled down”.
